ChEMBL document CHEMBL1126450, “Semisynthetic modification of hygromycin A. 3. synthesis and antibacterial activity of aminocyclitol analogs” (1992)
Converted amounts (≈) assume the structure as drawn.

Experiments:
[1] = system: Brachyspira hyodysenteriae; experiment: The minimum inhibitory concentration (MIC) of the cyclohexylamide analogs against Serpulina hyodysenteriae; format: functional
Pasteurella multocida = experiment: The minimum inhibitory concentration (MIC) of the cyclohexylamide analogs against Pasteurella multocida; format: functional

| SMILES | MIC [1] [µg/mL] | MIC (Pasteurella multocida) [µg/mL] |
| --- | --- | --- |
| CO[C@@H]1[C@H](O)[C@@H](O)[C@@H](NC(=O)/C(C)=C\c2ccc(O[C@@H]3O[C@H](C(C)=O)[C@@H](O)[C@@H]3O)c(O)c2)[C@@H](O)[C@@H]1OC | 100 (≈ 190 µM) | > 400 |
| CO[C@@H]1[C@@H](O)[C@H]2OCO[C@H]2[C@H](O)[C@@H]1NC(=O)/C(C)=C\c1ccc(O[C@@H]2O[C@H](C(C)=O)[C@@H](O)[C@@H]2O)c(O)c1 | 3.13 (≈ 5.96 µM) | 12.5 (≈ 23.8 µM) |
| CC(=O)[C@H]1O[C@@H](Oc2ccc(/C=C(\C)C(=O)N[C@H]3C4OC(C5OCOC54)[C@H]3O)cc2O)[C@@H](O)[C@@H]1O (some centres undefined) | > 200 | > 200 |
| CO[C@@H]1[C@@H](O)[C@@H](NC(=O)/C(C)=C\c2ccc(O[C@@H]3O[C@H](C(C)=O)[C@@H](O)[C@@H]3O)c(O)c2)[C@@H](O)[C@@H]2OCO[C@H]12 | 25 (≈ 47.6 µM) | 100 (≈ 190 µM) |
| CC(=O)[C@H]1O[C@@H](Oc2ccc(/C=C(/C)C(=O)N[C@H]3[C@@H](O)[C@@H]4OCO[C@@H]4[C@H](O)[C@@H]3O)cc2O)[C@@H](O)[C@@H]1O | 3.13 (≈ 6.12 µM) | 12.5 (≈ 24.4 µM) |
| CO[C@@H]1[C@H](NC(=O)/C(C)=C\c2ccc(O[C@@H]3O[C@H](C(C)=O)[C@@H](O)[C@@H]3O)c(O)c2)[C@H](O)[C@@H](O)[C@H]2OCO[C@H]21 | 6.25 (≈ 11.9 µM) | 12.5 (≈ 23.8 µM) |
| CC(=O)[C@H]1O[C@@H](Oc2ccc(/C=C(\C)C(=O)N[C@@H]3[C@H](O)[C@@H](O)[C@H]4OCO[C@H]4[C@@H]3O)cc2O)[C@@H](O)[C@@H]1O [HYGROMYCIN A] | 1.56 (≈ 3.05 µM) | 1.56 (≈ 3.05 µM) |
